Source: patent US5401724A, “Therapeutic treatment of chronic myelogenous leukemia by administration of 2-chloro-2'-deoxy adenosine” (priority 1994, dated 1995)

Legend:
neutrophils = conditions: chronic lymphocytic leukemia; serum levels less than 10 nM; in most cases; cited from earlier work
[1] = test system: DHL9, Increased ribonucleotide reduction; test: cells; conditions: Homo sapiens, 120 h, read-out: ID50
From the text: (§4) ^1 Concentration that produced 50 percent reduction in all numbers

[2] = test system: chronic myelogenous leukemia; test: Hematological remission in patients with stable phase CML treated with 2-CdA (Example 1); assay type: in vivo, human
Description: (§1) Each course was repeated every 28 days until the maximum hematological remission response of the treatment was achieved. The median age of the patients was 60 years, with a range of 52 to 75 years. There were 3 males and 2 females. A median of 2 courses of treatment was administered, with a range of 1 to 4 courses.
The median follow-up was 3.2 months, with a range from 1.0 to 5.7 months.

CEM, wild type = test: cells; conditions: Homo sapiens, 120 h, read-out: ID50
From the text: as §4

[3] = test system: delayed-type hypersensitivity; test: Effects of different dosages of 2-CdA on DTH to ovalbumin (Example 5, second study); assay type: in vivo, guinea pig; conditions: for inhibition of swelling compared to saline control: 24 and 48 hours post-challenge, p <0.01 by Student's t-test
Description: (§2) Delayed-type hypersensitivity (DTH) is a cell-mediated immune response that typically takes longer than 12 hours to develop. In the guinea pig, a DTH reaction to an antigen can be established by first immunizing the animal with the antigen in an adjuvant such as Freund's complete adjuvant. Subsequent intradermal injection of the antigen causes no change for at least 10 hours, after which there is a gradual increase in erythema and swelling in response to antigen injection. This response peaks about at about 24 hours after challenge, then gradually subsides.
(§3) Histologically, the inflammatory response is characterized by intense inundation of the site with mononuclear cells, of which about half are lymphocytes and the other half monocytes. DTH is therefore an indicator of a monocyte-mediated immune reaction.
Three days after treatment, the animals were challenged with ovalbumin intradermally. The areas of the skin lesions were measured at 6, 24, and 48 hours after challenge.

[4] = test system: total circulating peripheral blood granulocytes; test: Effect of 2-CdA on total circulating peripheral blood granulocytes in a patient with CML (Example 2); assay type: in vivo, human
Description: as §1

[5] = test system: delayed-type hypersensitivity; test: Oral and IP effects on delayed-type hypersensitivity (DTH) to ovalbumin (Example 5, first study); assay type: in vivo, guinea pig
Description: as §2, §3
In one study, guinea pigs were sensitized to ovalbumin in adjuvant. […] The animals were then injected with ovalbumin intradermally to elicit the DTH response. The mean area of the swelling size was measured for each animal (nine or ten animals were treated for each protocol).

CFU-GM cells = conditions: 100 nM; cited from earlier work
[6] = test system: Mature BFU-E (mBFU-E) cells; conditions: read-out: IC50 (concentration required to inhibit 50 percent of growth); cited from earlier work
[7] = test system: Primitive burst-forming unit-erythroid (pBFU-E) cells; conditions: read-out: IC50 (concentration required to inhibit 50 percent of growth); cited from earlier work
[8] = test system: colony forming unit-erythroid (CFU-E) cells; conditions: read-out: IC50 (concentration required to inhibit 50 percent of growth); cited from earlier work
Monocytes = test: cells; conditions: Homo sapiens, Monocyte, 120 h, read-out: ID50
From the text: as §4

[9] = test system: CEM, Increased 5'-nucleoside; test: cells; conditions: Homo sapiens, 120 h, read-out: ID50
From the text: as §4

[10] = test system: Colony forming unit-granulocyte macrophage (CFU-GM) cells; conditions: read-out: IC50 (concentration required to inhibit 50 percent of growth); cited from earlier work
granulocytes [11] = test: Effects of 2-CdA on granulocyte counts in two non-CML (multiple sclerosis) patients (Example 3); assay type: in vivo, human
From the text: Those results are illustrated and discussed hereinafter in Example 3.
Granulocyte counts were obtained from two patients who were receiving 2-CdA in the treatment of a non-leukemic disease, multiple sclerosis. These patients therefore had normal granulocytes.

granulocytes [12] = conditions: hairy cell leukemia, cited from earlier work
[13] = test system: CEM, deoxyeytidine kinase deficient; test: cells; conditions: Homo sapiens, 120 h, read-out: ID50
From the text: as §4

[14] = test system: Peripheral blood lymphocytes; test: cells; conditions: Homo sapiens, Lymphocyte, 120 h, read-out: ID50
From the text: as §4

CML in blast crisis = conditions: Phase I, cited from earlier work

For `Nc1nc(Cl)nc2c1ncn2[C@H]1C[C@H](O)[C@@H](CO)O1` [2-CdA, 2-chloro-2'-deoxyadenosine], the neutrophil count (neutrophils) is listed as “increase in neutrophil count”, the IC50 [1] is listed as 4000 nM and the “toxicity attributable to 2-CdA” value ([2]; 0.1 mg/kg per day continuous i.v. infusion for 7 days, 1 to 4 courses) is listed as “No toxicity attributable to 2-CdA was encountered”. For the same compound, the “hematological remission upon follow-up, Patient 4” value ([2]; 1 course, prior hydroxyurea and α-interferon, follow-up 1.5 months) was “complete hematological remission”, the “hematological remission upon follow-up, Patient 5” value ([2]; 2 courses, prior hydroxyurea, follow-up 1.0 months) was “complete hematological remission” and the “hematological remission upon follow-up, Patient 2” value ([2]; 2 courses, prior hydroxyurea, follow-up 3.0 months) was “complete hematological remission”. The “hematological remission upon follow-up, Patient 3” value ([2]; 3 courses, prior hydroxyurea and α-interferon, follow-up 3.2 months) was “complete hematological remission”, the “hematological remission upon follow-up, Patient 1” value ([2]; 4 courses, prior hydroxyurea, follow-up 5.7 months) was “complete hematological remission” and the “complete hematological remissions (normalization of peripheral leukocyte counts, platelet counts, and resolution of splenomegaly)” value ([2]; 5 patients, 0.1 mg/kg per day continuous i.v. infusion for 7 days, repeated every 28 days, median 2 courses) was “All five patients obtained complete hematological remissions”. For the same compound, the “median follow-up (all patients continuing in hematologic remission)” value ([2]; 5 patients, range 1.0 to 5.7 months) was 3.2 months, the “Philadelphia chromosome at follow-up” value ([2]; all patients) was “persistence of the Philadelphia chromosome” and the “hematologic remission at follow-up, all patients” value ([2]; median follow-up 3.2 months) was “All patients continue to be in hematologic remission”. For the same compound, the IC50 (CEM, wild type) was 21 nM, the “inhibition of swelling compared to saline control” value ([3]; 0.1 mg/kg) was “effective at inhibiting swelling” and the “inhibition of swelling compared to saline control” value ([3]; 1 mg/kg) was “effective at inhibiting swelling”. For the same compound, the “areas of swelling, 0.1 vs 1.0 mg/kg” value ([3]; 0.1 and 1.0 mg/kg) was “substantially the same”, the “areas of swelling compared to dexamethasone-treated animals” value ([3]; 0.1 and 1.0 mg/kg 2-CdA vs dexamethasone 5 mg/kg) was “slightly less than the value obtained with dexamethasone” and the granulocyte count ([4]; second course, day 5) was 27,724 /μl. For the same compound, the “decrease from the granulocyte count at day zero” value ([4]; second course, day 13) was over 99%, the granulocyte count ([4]; second course, day 13) was 210 µL⁻¹ and the granulocyte count ([4]; second course, day 17) was 690 µL⁻¹. For the same compound, the granulocyte count ([4]; second course, day zero (start of therapy)) was 34,831 /μl, the granulocyte count ([4]; third course, day 5, unit not given) was 5,676 /μl and the “decrease from the initial granulocyte level” value ([4]; third course, day 14) was “approximately 98%”. For the same compound, the granulocyte count ([4]; third course, day 14, unit not given) was 270 µL⁻¹, the “lower than the initial granulocyte count” value ([4]; third course, day 17) was 95% and the granulocyte count ([4]; third course, day 17, unit not given) was 525 µL⁻¹. The granulocyte count ([4]; third course, day zero, unit not given) was 11,060 /μl, the “inhibition of swelling compared to control animals” value ([5]; 1 mg/kg, intraperitoneal, p <0.01 by Student's t-test) was “significant inhibition of swelling” and the “effect on DTH swelling, oral route” value ([5]; 1 mg/kg, oral, without enteric coating) was “ineffective”. The “effectiveness when given orally” value ([5]; oral, without the protection of an enteric coating (2-CdA), preliminary in vivo studies) was “ineffective”, the “reduction of CFU-GM growth” value (CFU-GM cells) was 60% and the IC50 [6] was 38 nM. For the same compound, the IC50 [7] was 19 nM, the IC50 [8] was 56 nM and the IC50 (Monocytes) was 22 nM. For the same compound, the IC50 [9] was 60 nM, the IC50 [10] was 16 nM and the “granulocyte counts after several courses” value (granulocytes [11]; multiple sclerosis patients, about 0.1 mg/kg/day, seven day continuous infusion) was “substantially unchanged”. The “effect on the granulocyte count” value (granulocytes [11]; two multiple sclerosis patients) was “did not affect the granulocyte count”, the neutropenia (granulocytes [12]) was “transient neutropenia” and the granulocyte counts (granulocytes [12]; transient) was “under 500 per microliter”. The IC50 [13] was 716000 nM, the IC50 [14] was 15 nM and the detectable tumor (CML in blast crisis; another of two patients) was “loss of detectable tumor in another patient”. The blast count (CML in blast crisis; one of two patients) was “decrease in blast count in one patient”.
